# Source: patent US20210308173A1, “PHARMACEUTICAL COMPOSITION COMPRISING CYCLODEXTRIN COMPLEXES OF ANETHOLE TRITHIONE OR DERIVATIVES THEREOF” (priority 2018, published 2021)
# Assay: Cyclodextrin-AOL solubility diagrams
# Assay type: physicochemical
# Description: A cyclodextrin-AOL solubility diagram would reveal the profile of the solubility curve of the AOL depending on the concentration of the cyclodextrin. The principle of this method is to add an excess of AOL to cyclodextrin solutions of increasing concentration, then to measure the amount of solubilized AOL. This method confirms the solubilization and evaluates more precisely the cyclodextrin solubilizing power, to define a stoichiometry of the complexes (molar and mass ratios) over the entire range of concentrations studied and to estimate the solubility limit and the stability of the mixtures.
# The solubilization was carried out with HP-β-CD and SBE-β-CD in a range of concentration ranging from 2.5% to 40% (m/m) at 20° C., 25° C. and 30° C. To check the stability of the solution, a storage test at 4° C. for 48 hours was carried out with the solutions previously prepared at 20° C.
# Aqueous solutions of cyclodextrin at in weight (m/m) concentrations of 2.5%, 5%, 10%, 20%, 30% and 40% were prepared in pure water. An excess of AOL was suspended in 2 mL each of these solutions. Each sample is shaken at 20° C., 25° C. or 30° C. for 4 hours (vortex at 1400 rpm). Each sample is centrifuged (12,500 g) and filtered through a 0.45 μm membrane.
# The solubility of AOL in each test solution was quantified by HPLC as detailed in Example 2.
# [1] = HP-β-CD 2.5% (w/w), 20° C. followed by 48 hours at 4° C.
# [2] = HP-β-CD 5% (w/w), 20° C. followed by 48 hours at 4° C.
# [3] = HP-β-CD 10% (w/w), 20° C. followed by 48 hours at 4° C.
# [4] = HP-β-CD 20% (w/w), 20° C. followed by 48 hours at 4° C.
# [5] = HP-β-CD 30% (w/w), 20° C. followed by 48 hours at 4° C.
# [6] = HP-β-CD 40% (w/w), 20° C. followed by 48 hours at 4° C.
# [7] = SBE-β-CD 2.5% (w/w), 20° C. followed by 48 hours at 4° C.
# [8] = SBE-β-CD 5% (w/w), 20° C. followed by 48 hours at 4° C.
# [9] = SBE-β-CD 10% (w/w), 20° C. followed by 48 hours at 4° C.
structure (smiles),measurement,setting,value
"COc1ccc(-c2cc(=S)ss2)cc1 [AOL, 5-(4-methoxyphenyl)-3H-1,2-dithiole-3-thione]",CD/AOL molar ratio RM,"HP-β-CD 2.5% (w/w), 20° C.",200
same,CD/AOL weight ratio Rm,"HP-β-CD 2.5% (w/w), 20° C.",1866
same,CD/AOL molar ratio RM,[1],231
same,CD/AOL weight ratio Rm,[1],2155
same,CD/AOL molar ratio RM,"HP-β-CD 2.5% (w/w), 25° C.",137
same,CD/AOL weight ratio Rm,"HP-β-CD 2.5% (w/w), 25° C.",1282
same,CD/AOL molar ratio RM,"HP-β-CD 2.5% (w/w), 30° C.",103
same,CD/AOL weight ratio Rm,"HP-β-CD 2.5% (w/w), 30° C.",958
same,CD/AOL molar ratio RM,"HP-β-CD 5% (w/w), 20° C.",196
same,CD/AOL weight ratio Rm,"HP-β-CD 5% (w/w), 20° C.",1832
same,CD/AOL molar ratio RM,[2],213
same,CD/AOL weight ratio Rm,[2],1992
same,CD/AOL molar ratio RM,"HP-β-CD 5% (w/w), 25° C.",133
same,CD/AOL weight ratio Rm,"HP-β-CD 5% (w/w), 25° C.",1247
same,CD/AOL molar ratio RM,"HP-β-CD 5% (w/w), 30° C.",104
same,CD/AOL weight ratio Rm,"HP-β-CD 5% (w/w), 30° C.",973
same,CD/AOL molar ratio RM,"HP-β-CD 10% (w/w), 20° C.",175
same,CD/AOL weight ratio Rm,"HP-β-CD 10% (w/w), 20° C.",1631
same,CD/AOL molar ratio RM,[3],203
same,CD/AOL weight ratio Rm,[3],1898
same,CD/AOL molar ratio RM,"HP-β-CD 10% (w/w), 25° C.",128
same,CD/AOL weight ratio Rm,"HP-β-CD 10% (w/w), 25° C.",1192
same,CD/AOL molar ratio RM,"HP-β-CD 10% (w/w), 30° C.",94
same,CD/AOL weight ratio Rm,"HP-β-CD 10% (w/w), 30° C.",874
same,CD/AOL molar ratio RM,"HP-β-CD 20% (w/w), 20° C.",148
same,CD/AOL weight ratio Rm,"HP-β-CD 20% (w/w), 20° C.",1381
same,CD/AOL molar ratio RM,[4],197
same,CD/AOL weight ratio Rm,[4],1840
same,CD/AOL molar ratio RM,"HP-β-CD 20% (w/w), 25° C.",116
same,CD/AOL weight ratio Rm,"HP-β-CD 20% (w/w), 25° C.",1086
same,CD/AOL molar ratio RM,"HP-β-CD 20% (w/w), 30° C.",84
same,CD/AOL weight ratio Rm,"HP-β-CD 20% (w/w), 30° C.",784
same,CD/AOL molar ratio RM,"HP-β-CD 30% (w/w), 20° C.",132
same,CD/AOL weight ratio Rm,"HP-β-CD 30% (w/w), 20° C.",1235
same,CD/AOL molar ratio RM,[5],172
same,CD/AOL weight ratio Rm,[5],1607
same,CD/AOL molar ratio RM,"HP-β-CD 30% (w/w), 25° C.",112
same,CD/AOL weight ratio Rm,"HP-β-CD 30% (w/w), 25° C.",1044
same,CD/AOL molar ratio RM,"HP-β-CD 30% (w/w), 30° C.",70
same,CD/AOL weight ratio Rm,"HP-β-CD 30% (w/w), 30° C.",655
same,CD/AOL molar ratio RM,"HP-β-CD 40% (w/w), 20° C.",124
same,CD/AOL weight ratio Rm,"HP-β-CD 40% (w/w), 20° C.",1162
same,CD/AOL molar ratio RM,[6],159
same,CD/AOL weight ratio Rm,[6],1481
same,CD/AOL molar ratio RM,"HP-β-CD 40% (w/w), 25° C.",103
same,CD/AOL weight ratio Rm,"HP-β-CD 40% (w/w), 25° C.",958
same,CD/AOL molar ratio RM,"HP-β-CD 40% (w/w), 30° C.",66
same,CD/AOL weight ratio Rm,"HP-β-CD 40% (w/w), 30° C.",621
same,CD/AOL molar ratio RM,"SBE-β-CD 2.5% (w/w), 20° C.",91
same,CD/AOL weight ratio Rm,"SBE-β-CD 2.5% (w/w), 20° C.",853
same,CD/AOL molar ratio RM,[7],158
same,CD/AOL weight ratio Rm,[7],1479
same,CD/AOL molar ratio RM,"SBE-β-CD 2.5% (w/w), 25° C.",75
same,CD/AOL weight ratio Rm,"SBE-β-CD 2.5% (w/w), 25° C.",698
same,CD/AOL molar ratio RM,"SBE-β-CD 2.5% (w/w), 30° C.",60
same,CD/AOL weight ratio Rm,"SBE-β-CD 2.5% (w/w), 30° C.",559
same,CD/AOL molar ratio RM,"SBE-β-CD 5% (w/w), 20° C.",90
same,CD/AOL weight ratio Rm,"SBE-β-CD 5% (w/w), 20° C.",838
same,CD/AOL molar ratio RM,[8],155
same,CD/AOL weight ratio Rm,[8],1445
same,CD/AOL molar ratio RM,"SBE-β-CD 5% (w/w), 25° C.",71
same,CD/AOL weight ratio Rm,"SBE-β-CD 5% (w/w), 25° C.",668
same,CD/AOL molar ratio RM,"SBE-β-CD 5% (w/w), 30° C.",56
same,CD/AOL weight ratio Rm,"SBE-β-CD 5% (w/w), 30° C.",520
same,CD/AOL molar ratio RM,"SBE-β-CD 10% (w/w), 20° C.",85
same,CD/AOL weight ratio Rm,"SBE-β-CD 10% (w/w), 20° C.",798
same,CD/AOL molar ratio RM,[9],151
same,CD/AOL weight ratio Rm,[9],1414
same,CD/AOL molar ratio RM,"SBE-β-CD 10% (w/w), 25° C.",68
same,CD/AOL weight ratio Rm,"SBE-β-CD 10% (w/w), 25° C.",639
same,CD/AOL molar ratio RM,"SBE-β-CD 10% (w/w), 30° C.",54
same,CD/AOL weight ratio Rm,"SBE-β-CD 10% (w/w), 30° C.",507
same,CD/AOL molar ratio RM,"SBE-β-CD 20% (w/w), 20° C.",77
